Reference: patent publication US7217800B2, “Peptide leukotriene receptor” (Astellas Pharma Inc., priority 1999, dated 2007)

Experiments:
LTC4 receptor [1] = molecular target: T1, LTC4 receptor (Homo sapiens, UniProt Q9NS75); experiment: Inhibition of [3H]-LTC4 binding, membrane fraction of CHO cells stably expressing LTC4 receptor; details: 0.5×10^−9 M [3H]-LTC4; 15 μg CHO membrane fraction; 1 hour, room temperature
T1 construct: expressed in transfected cells; whole cells or membrane fraction
T1 sequence (Q9NS75 1-346): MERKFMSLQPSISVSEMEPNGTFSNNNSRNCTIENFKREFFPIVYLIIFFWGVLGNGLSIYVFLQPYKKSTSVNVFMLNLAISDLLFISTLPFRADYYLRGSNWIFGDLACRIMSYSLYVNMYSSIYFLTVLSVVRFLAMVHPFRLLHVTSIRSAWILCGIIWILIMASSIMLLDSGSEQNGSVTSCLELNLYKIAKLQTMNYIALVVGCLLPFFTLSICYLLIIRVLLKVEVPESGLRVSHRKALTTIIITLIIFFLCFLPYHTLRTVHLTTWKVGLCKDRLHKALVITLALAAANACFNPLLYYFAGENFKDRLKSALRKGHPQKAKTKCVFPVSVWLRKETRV
Protocol: Micro-scintillator was added to the glass filter and the radioactivity was measured by a liquid scintillation counter. […] Compound A was produced as follows.

LTC4 receptor [2] = molecular target: T1, LTC4 receptor; experiment: Inhibition of increase of intracellular Ca++ concentration elicited by LTC4 or LTD4, CHO cells stably expressing LTC4 receptors; type: cell-based
Protocol: After culturing for 24 hours, medium was discarded and 100 μl/well of Hanks BSS containing 4 μM Fluo-3, AM (Molecular Probe), 0.004% pluronic acid, 1% FBS, 20 mM HEPES, and 2.5 mM probenecid was added, and incubated at 37° C. for 1 hour.
The changes of intracellular Ca^++ concentration were measured using FLIPR with the same condition as in Example 6.

LTC4 receptor [3] = molecular target: T1, LTC4 receptor; experiment: Cell migration of CHO cells expressing LTC4 receptors elicited by LTC4; type: cell-based; details: compound in upper layer, 3 nM LTC4 in lower layer
Protocol: After culturing for 4 hours in a CO2 incubator at 37° C., the frame filter was fixed in methanol and stained with Diff-Quik staining kit (Kokusai-Shiyaku). The upper surface (the side onto which the cells were inoculated) of the filter was wiped, and after air drying, absorbance at 595 nm was measured with the plate reader (Molecular Devices).

[4] = test system: human coronary arterial smooth muscle cells; experiment: Increase of intracellular Ca++ concentration by LTC4 in coronary arterial smooth muscle cells; type: cell-based
Protocol: The medium was discarded, and by adding 100 μl/well of Hanks BSS containing 4 μM Fluo-3, AM (Molecular Probe), 0.004% pluronic acid, 1% FBS, 20 mM HEPES, and 2.5 mM probenecid, the cells were incubated for 1 hour at 37° C. […] It is well known that the increase of intracellular Ca^++ concentration in blood vessel smooth muscle cells causes vasoconstriction (Bolton, T. B., et al. Physiol. Rev. (1979) 59, 606–718).

pig LTC4 receptor [5] = molecular target: T2, pig LTC4 receptor (Sus scrofa, UniProt Q95N03); experiment: [3H]-LTC4 saturation binding, membrane fraction of COS-1 cells transfected with pEF-BOS-pig LTC4 receptor
T2 construct: expressed in transfected cells
T2 sequence (Q95N03 1-345): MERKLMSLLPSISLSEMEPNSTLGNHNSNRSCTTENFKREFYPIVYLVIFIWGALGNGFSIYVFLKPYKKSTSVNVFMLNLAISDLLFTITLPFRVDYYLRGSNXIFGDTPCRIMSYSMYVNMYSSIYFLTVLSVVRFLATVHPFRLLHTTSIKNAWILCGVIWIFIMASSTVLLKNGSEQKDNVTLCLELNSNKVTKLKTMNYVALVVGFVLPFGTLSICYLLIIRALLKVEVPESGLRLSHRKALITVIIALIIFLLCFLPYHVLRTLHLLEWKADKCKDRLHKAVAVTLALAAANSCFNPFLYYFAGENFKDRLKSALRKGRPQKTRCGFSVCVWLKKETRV
Protocol: 2×10^6 COS-1 cells were inoculated to a […] culture flask and cultured for 36 hours, and then, 50 μg of pEF-BOS-PSEC0146 or pEF-BOS (empty vector) was transfected using FuGENE6 (Boeringer Mannheim) Cells cultured for 36 hours following gene transfection were recovered and washed, then suspended in 20 mM Tris-HCl (pH 7.4), 5 mM EDTA and homogenized with a Polytron homogenizer. After ultracentrifugation, the homogenized cells were suspended in 50 mM HEPES (pH 7.4), 40 mM MgCl2, 1 mM EGTA as a membrane fraction. 0.5 to 14×10^−9 M of [^3H]-LTC4 (Daiichi Pure Chemicals) at final concentration was added to 5 μg of the membrane fraction, and incubated 1 hour at room temperature in 250 μl solution comprising 50 mM HEPES (pH 7.4), 40 mM MgCl2, 1 mM EGTA, 5 mM L-Serine, 10 mM Borate, 2 mM L-Cystein, and 2 mM L-Glycine. Thereafter, the membrane fraction was recovered on a glass filter using a cell harvester. Micro-scintillator was added to the glass filter and the total binding to the membrane fraction was measured by using a liquid scintillation counter. […]
First, to express the protein encoded by the cDNA, the cDNA was obtained by PCR using pig genomic DNA as the template. The nucleotide sequence of primers required for PCR was designed based on the nucleotide sequence information determined in Example 15. […]

pig LTC4 receptor [6] = molecular target: T2, pig LTC4 receptor; experiment: Increase of intracellular Ca++ concentration, HEK293-EBNA cells transfected with pEF-BOS-pig LTC4 receptor; type: cell-based; details: Logistic regression
Protocol: (§1) 2.5×10^4 cells per well of HEK293-EBNA cells were inoculated to 96 well Black/clear bottom plate, collagen type I coated (BECTON DICKINSON). After culturing for 24 hours, 40 ng per well of pEF-BOS-PSECO 146 or pEF-BOS (empty vector) were transfected into the cells using FuGENE6 (Boeringer Mannheim). 24 hours after gene transfection, the medium was discarded, 100 μl per well of DMEM containing 4 μM Fluo-3, AM (Molecular Probe), 0.004% pluronic acid, and 10% FBS was added and incubated for 1 hour at 37° C. Following incubation, cells were washed four times with Hanks BSS containing 20 mM HEPES (GIBCO), then 100 μl per well of Hanks BSS containing 20 mM HEPES was added. The time course of the changes of intracellular Ca^++ concentration was measured using FLIPR (Molecular Device).
Further, the changes of intracellular Ca^++ concentration were measured using HEK293-EBNA cells under the same condition as in Example 5.

rat LTC4 receptor = molecular target: T3, rat LTC4 receptor (Rattus norvegicus, UniProt Q924T9); experiment: Increase of intracellular Ca++ concentration, HEK293-EBNA cells transfected with pEF-BOS-rat LTC4 receptor; type: cell-based; details: Logistic regression
T3 construct: expressed in transfected cells
T3 sequence (Q924T9 1-309): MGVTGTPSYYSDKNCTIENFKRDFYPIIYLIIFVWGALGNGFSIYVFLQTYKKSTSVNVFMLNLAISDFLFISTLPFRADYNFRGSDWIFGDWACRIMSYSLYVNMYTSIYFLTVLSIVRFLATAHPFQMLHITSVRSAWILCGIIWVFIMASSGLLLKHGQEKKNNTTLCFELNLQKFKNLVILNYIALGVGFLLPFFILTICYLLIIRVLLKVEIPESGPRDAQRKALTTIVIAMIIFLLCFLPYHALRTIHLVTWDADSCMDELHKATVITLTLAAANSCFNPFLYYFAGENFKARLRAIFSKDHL
Protocol: as §1
This plasmid was designated as pEF-BOS-rat LTC4 receptor.
The changes of intracellular Ca^++ concentration were measured using HEK293-EBNA cells under the same condition as in Example 5.

Structure (SMILES) | IC50 (LTC4 receptor [1]) [nM] | IC50 (LTC4 receptor [2]) [nM] | inhibition of increase of intracellular Ca++ concentration elicited by LTD4 (LTC4 receptor [2]; CHO stable cells, LTD4 stimulus) | inhibition of cell migration by LTC4 (LTC4 receptor [3]) | inhibition of increase of intracellular Ca++ concentration by LTC4 ([4]; 5 min pre-treatment) | increase of intracellular Ca++ concentration ([4]; 10^−6 to 10^−9 M LTC4) | maximum binding (Bmax) (pig LTC4 receptor [5]; Scatchard analysis, COS-1 membrane fraction) [pmol/mg protein] | Kd (pig LTC4 receptor [5]; read-out: dissociation constant of LTC4 binding (Kd), Scatchard analysis, COS-1 membrane fraction) [nM] | EC50 (pig LTC4 receptor [6]) [nM] | EC50 (rat LTC4 receptor) [nM]
CCCn1c(-c2ccc3c(S(=O)(=O)Nc4onc(C)c4C)cccc3c2)nc2ccccc21 [Compound A, N-(3,4-dimethyl-5-isoxazolyl)-6-(1-propyl-1H-benzimidazol-2-yl) -1-naphthalenesulfonamide] | 1200 | 2300 | inhibited dose-dependently | inhibits dose-dependently | inhibit dose-dependently |  |  |  |  | 
CCCCC/C=C\C\C=C/C=C/C=C/[C@@H](SC[C@H](NC(=O)CC[C@H](N)C(=O)O)C(=O)NCC(=O)O)[C@@H](O)CCCC(=O)O [LTC4, leukotriene C4] |  |  |  |  |  | induce increase of the intracellular Ca^++ concentration in a dose-dependent manner | 0.25 | 2.89 | 5 | 19
CCCCC/C=C\C\C=C/C=C/C=C/[C@@H](SC[C@H](N)C(=O)NCC(=O)O)[C@@H](O)CCCC(=O)O [LTD4, leukotriene D4] |  |  |  |  |  |  |  |  | 3.3 | 7.7
